{
  "source": "patent US20100168093A1",
  "about": "“SUBSTITUTED 3-AMINO-4 -HYDROXY PYRROLIDINES COMPOUNDS, THEIR PREPARATION AND USE AS MEDICAMENTS” (priority 2006, published 2010)",
  "key": {"Sigma-1 receptor": {"molecular_target": "T1, Sigma-1 receptor (Cavia porcellus, UniProt Q60492)", "T1 construct": "guinea pig brains were homogenized; from tissue; host or cells: guinea pig brain membranes", "T1 sequence (Q60492 whole entry)": "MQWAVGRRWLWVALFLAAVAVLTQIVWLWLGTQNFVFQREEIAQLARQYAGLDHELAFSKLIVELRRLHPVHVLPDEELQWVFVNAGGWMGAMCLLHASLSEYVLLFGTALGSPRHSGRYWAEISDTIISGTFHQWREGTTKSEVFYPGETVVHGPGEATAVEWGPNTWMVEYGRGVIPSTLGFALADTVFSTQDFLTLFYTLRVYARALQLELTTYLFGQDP", "test": "Sigma-1 receptor binding assay, [3H](+)-pentazocine displacement in brain membranes", "settings": "2.5 h, compound at 10^−7 M; [3H](+)-pentazocine 0.5 nM; guinea pig brain membranes; non-specific binding defined by 1 μM haloperidol; read-out: Percent Replacement Sigma-1 receptor [10^−7 M]", "method": "Some representative compounds of the invention were tested for their activity as sigma (sigma-1) inhibitors. The following protocol was followed:\nBrain membrane preparation and binding assays for the σ1-receptor were performed as described (DeHaven-Hudkins et al., 1992, Eur. J. Pharmacol. 227, 371-378.) with some modifications. In brief, guinea pig brains were homogenized in 10 vols. (w/v) of Tris-HCl 50 mM 0.32 M sucrose, pH 7.4, with a Kinematica Polytron PT 3000 at 15000 r.p.m. for 30 s. The homogenate was centrifuged at 1000g for 10 min at 4° C. and the supematants collected and centrifuged again at 48000 g for 15 min at 4° C. The pellet was resuspended in 10 volumes of Tris-HCl buffer (50 mM, pH 7.4), incubated at 37° C. for 30 min, and centrifuged at 48000 g for 20 min at 4° C. Following this, the pellet was resuspended in fresh Tris-HCl buffer (50 mM, pH 7.4) and stored on ice until use.\nEach assay tube contained 10 μL of [^3H](+)-pentazocine (final concentration of 0.5 nM), 900 μL of the tissue suspension to a final assay volume of 1 mL and a final tissue concentration of approximately 30 mg tissue net weight/mL. Non-specific binding was defined by addition of a final concentration of 1 μM haloperidol. All tubes were incubated at 37° C. for 150 min before termination of the reaction by rapid filtration over Schleicher & Schuell GF 3362 glass fibre filters [previously soaked in a solution of 0.5% polyethylenimine for at least 1 h]. Filters were then washed with four times with 4 mL of cold Tris-HCl buffer (50 mM, pH 7.4). Following addition of scintillation cocktail, the samples were allowed to equilibrate overnight. The amount of bound radioactivity was determined by liquid scintillation spectrometry using a Wallac Winspectral 1414 liquid scintillation counter. Protein concentrations were determined by the method of Lowry et al. (1951; J. Biol. Chem, 193, 265.)."}},
  "data": [
    {"compound": "O[C@@H]1CN(Cc2ccccc2)C[C@H]1N1CCN(c2ccccc2)CC1", "note": "[Example 18, (3,4-trans)-1-benzyl-4-(4-phenylpiperazin-1-yl)pyrrolidine-3-ol]", "values": [
      {"measurement": "inhibition at 0.1 µM", "setting": "Sigma-1 receptor", "result": 90.9, "unit": "%"},
      {"measurement": "melting point", "result": "120 to 123", "unit": "°C"}
    ]},
    {"compound": "O[C@@H]1CN(Cc2ccccc2)C[C@H]1N1CCN(Cc2ccccc2)CC1", "note": "[Example 17, (3,4-trans)-1-benzyl-4-(4-benzylpiperazin-1-yl)pyrrolidine-3-ol]", "values": [
      {"measurement": "inhibition at 0.1 µM", "setting": "Sigma-1 receptor", "result": 82.1, "unit": "%"},
      {"measurement": "melting point", "result": "102 to 103", "unit": "°C"}
    ]}
  ]
}
